Test results from patent US12312359B2 (Vitae Pharmaceuticals, LLC, priority 2016, dated 2025).

What was measured:
[1] = biological target: T1, biotinylated wild-type menin and MLL-AF9 fusion protein (menin/MLL binding) (Homo sapiens, UniProt O00255); assay: Assay 1: menin/MLL binding AlphaLISA assay, wild-type menin; details: Table 30; column head does not say wild-type or mutated menin
T1 construct: made in house; host or cells: menin: E. coli; MLL-AF9-FLAG: HEK293 cells, used as cleared lysate
T1 sequence (O00255 1-610): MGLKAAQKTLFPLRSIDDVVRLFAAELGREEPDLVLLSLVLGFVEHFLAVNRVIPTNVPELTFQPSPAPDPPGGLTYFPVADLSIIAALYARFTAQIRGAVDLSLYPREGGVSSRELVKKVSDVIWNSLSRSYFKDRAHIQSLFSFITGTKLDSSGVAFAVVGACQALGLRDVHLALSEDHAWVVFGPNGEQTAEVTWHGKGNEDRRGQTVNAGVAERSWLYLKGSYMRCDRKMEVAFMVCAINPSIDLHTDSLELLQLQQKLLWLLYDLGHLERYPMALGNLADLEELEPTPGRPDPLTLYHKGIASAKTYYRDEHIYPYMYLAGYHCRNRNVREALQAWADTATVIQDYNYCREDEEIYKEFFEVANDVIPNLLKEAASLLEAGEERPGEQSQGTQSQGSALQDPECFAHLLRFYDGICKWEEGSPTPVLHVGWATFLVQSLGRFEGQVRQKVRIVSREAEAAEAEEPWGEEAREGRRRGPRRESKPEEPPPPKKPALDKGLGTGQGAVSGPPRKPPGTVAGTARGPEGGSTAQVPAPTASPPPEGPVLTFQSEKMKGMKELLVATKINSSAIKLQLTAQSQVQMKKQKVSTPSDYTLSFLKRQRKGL
Outline: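 Compound was preincubated 30 min at room temperature with biotinylated menin (5 nM) and MLL-AF9-FLAG lysate from HEK293 cells, pH 7.4 buffer with 5% DMSO and DTT. Bead-based Alpha signal after 60 min with streptavidin donor and anti-FLAG acceptor beads; four-parameter logistic fit gave IC50.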

[2] = test system: human acute monocytic leukemia cell line MV-4-11; assay: Assay 2: cell proliferation assay (ATP quantitation, CellTiter-Glo), MV-4-11; assay type: cell-based; details: Homo sapiens, MV4-11, 72 h, MV-4-11 cells
Outline: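 Read-out is CellTiter-Glo luminescence quantifying ATP. Compound exposure lasted 72 h at 37° C., 5% CO2, with 1.67×10^4 MV-4-11 cells per well in 10% FBS medium, alongside HL-60 toxicity-control cells.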

SMILES | IC50 [1] | EC50 [2]
CCN(C(=O)C(C)C)c1cc(F)ccc1Oc1cncnc1N1CC2(CCN(C[C@H]3CC[C@H](NC(=O)OC)CC3)CC2)C1 [Example 85, methyl ((1r,4r)-4-((2-(5-(2-(N-ethylisobutyramido)-4-fluorophenoxy)pyrimidin-4-yl)-2,7-diazaspiro[3.5]nonan-7-yl)methyl)cyclohexyl) carbamate] | < 0.1 µM | 0.1 to 1 µM
CC(F)(F)c1ccccc1-c1cc(F)ccc1Oc1cncnc1N1CCC2(CCN(Cc3ccc4[nH]c(=O)[nH]c4c3)C2)C1 (stereo not drawn) [Example 213, 5-((7-(5-((2′-(1,1-difluoroethyl)-5-fluoro-[1,1′-biphenyl]-2-yl)oxy)pyrimidin-4-yl)-2,7-diazaspiro[4.4]nonan-2-yl)methyl)-1,3-dihydro-2H-benzo[d]imidazol-2-one] | < 0.1 µM | < 0.1 µM
CC(C)N(C)C(=O)c1cc(F)ccc1Oc1cncnc1N1CCC2(CCN(Cc3ccc4c(c3)[nH]c(=O)n4C)C2)C1 (stereo not drawn) [Example 163, 5-fluoro-N-isopropyl-N-methyl-2-((4-(7-((1-methyl-2-oxo-2,3-dihydro-1H-benzo[d]imidazol-5-yl)methyl)-2,7-diazaspiro[4.4]nonan-2-yl)pyrimidin-5-yl)oxy)benzamide] | < 0.1 µM | 0.1 to 1 µM
CC(C)c1ccccc1-c1cc(F)ccc1Oc1cncnc1N1CCC2(CCN(Cc3ccc4[nH]c(=O)[nH]c4c3)C2)C1 (single isomer, unassigned) [Example 41A, 5-((7-(5-((5-fluoro-2′-isopropyl-[1,1′-biphenyl]-2-yl)oxy)pyrimidin-4-yl)-2,7-diazaspiro[4.4]nonan-2-yl)methyl)-1H-benzo[d]imidazol-2(3H)-one] | < 0.1 µM | < 0.1 µM
CCN(C(=O)C(C)C)c1cc(F)ccc1Oc1cncnc1N1CC2(CCN(CC(C)C)C2)C1 [Example 136, N-ethyl-N-(5-fluoro-2-((4-(6-isobutyl-2,6-diazaspiro[3.4]octan-2-yl)pyrimidin-5-yl)oxy)phenyl)iso-butyramide] | < 0.1 µM | 0.1 to 1 µM
CC(C)n1nccc1-c1cc(F)ccc1Oc1cncnc1N1CCC2(CCN(Cc3ccc4[nH]c(=O)[nH]c4c3)C2)C1 (stereo not drawn) [Example 237, 5-((7-(5-(4-fluoro-2-(1-isopropyl-1H-pyrazol-5-yl)phenoxy)pyrimidin-4-yl)-2,7-diazaspiro[4.4]nonan-2-yl)methyl)-1,3-dihydro-2H-benzo[d]imidazol-2-one] | < 0.1 µM | < 0.1 µM
CC(C)C(=O)N(CC(F)(F)F)c1cc(F)ccc1Oc1cncnc1N1CCC2(CCN(Cc3ccc4[nH]c(=O)[nH]c4c3)C2)C1 (stereo not drawn) [Example 187, N-(5-fluoro-2-((4-(7-((2-oxo-2,3-dihydro-1H-benzo[d]imidazol-5-yl)methyl)-2,7-diazaspiro[4.4]nonan-2-yl)pyrimidin-5-yl)oxy)phenyl)-N-(2,2,2-trifluoroethyl)iso-butyramide] | < 0.1 µM | < 0.1 µM
N#Cc1ccc(-c2cc(F)ccc2Oc2cncnc2N2CC3(CN(CC4CCC(O)CC4)C3)C2)c(C2CC2)c1 (stereo not drawn) [Example 151, 2-cyclopropyl-5′-fluoro-2′-((4-(6-((4-hydroxycyclohexyl)methyl)-2,6-diazaspiro[3.3]heptan-2-yl)pyrimidin-5-yl)oxy)-[1,1′-biphenyl]-4-carbonitrile] | < 0.1 µM | ≥ 1 µM
CCn1c(=O)[nH]c2cc(CN3CCC4(CCN(c5ncncc5Oc5ccc(F)cc5C(=O)N(C)C(C)C)C4)C3)ccc21 (stereo not drawn) [Example 128, 2-((4-(7-((1-ethyl-2-oxo-2,3-dihydro-1H-benzo[d]imidazol-5-yl)methyl)-2,7-diazaspiro[4.4]nonan-2-yl)pyrimidin-5-yl)oxy)-5-fluoro-N-isopropyl-N-methylbenzamide] | < 0.1 µM | 0.1 to 1 µM
